Results taken from ChEMBL document CHEMBL1136170, “5-aryl thiazolidine-2,4-diones: discovery of PPAR dual alpha/gamma agonists as antidiabetic agents” (Bioorg Med Chem Lett, 2003).

Columns and labels:
[1] = biological target: T1, Peroxisome proliferator-activated receptor alpha (Homo sapiens, UniProt Q07869); test: In vitro binding affinity against human Peroxisome proliferator activated receptor alpha
T1 sequence (Q07869 whole entry): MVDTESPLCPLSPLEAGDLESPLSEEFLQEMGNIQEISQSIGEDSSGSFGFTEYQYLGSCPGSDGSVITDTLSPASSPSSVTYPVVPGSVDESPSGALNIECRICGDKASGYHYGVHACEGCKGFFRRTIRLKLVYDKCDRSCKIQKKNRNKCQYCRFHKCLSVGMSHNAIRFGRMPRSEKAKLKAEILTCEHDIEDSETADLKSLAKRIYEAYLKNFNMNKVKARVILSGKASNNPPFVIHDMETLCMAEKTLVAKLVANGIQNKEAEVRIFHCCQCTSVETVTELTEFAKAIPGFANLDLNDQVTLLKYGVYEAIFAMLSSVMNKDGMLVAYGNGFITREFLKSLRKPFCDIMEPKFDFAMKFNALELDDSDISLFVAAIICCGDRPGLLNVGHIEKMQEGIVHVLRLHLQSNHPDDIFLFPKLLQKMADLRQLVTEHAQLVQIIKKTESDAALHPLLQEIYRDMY

[2] = Oral bioavailability in rat (Sprague-Dawley) (fasted male) (dose 2 mg/kg); type: ADME, organism-based; conditions: in vivo
[3] = biological target: T2, Peroxisome proliferator-activated receptor delta (Homo sapiens, UniProt Q03181)
T2 sequence (Q03181 whole entry): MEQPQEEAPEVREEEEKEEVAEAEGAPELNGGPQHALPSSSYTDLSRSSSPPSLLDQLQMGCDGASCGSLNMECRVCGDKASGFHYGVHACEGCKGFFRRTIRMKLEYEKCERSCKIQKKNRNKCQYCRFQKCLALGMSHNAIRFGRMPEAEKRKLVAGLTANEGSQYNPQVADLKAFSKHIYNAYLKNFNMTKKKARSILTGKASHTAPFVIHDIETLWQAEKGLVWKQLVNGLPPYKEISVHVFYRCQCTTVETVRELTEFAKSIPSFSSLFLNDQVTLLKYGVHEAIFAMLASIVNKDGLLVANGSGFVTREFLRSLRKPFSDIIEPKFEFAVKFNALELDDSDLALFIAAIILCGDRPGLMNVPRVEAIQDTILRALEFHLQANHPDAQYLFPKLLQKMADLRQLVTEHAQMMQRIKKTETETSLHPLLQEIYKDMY
Description: In vitro transactivation of human Peroxisome proliferator activated receptor delta measured in PPAR-GAL4 chimeric COS-1 cells

Mus musculus [4] = test: In vivo efficacy as percent triglyceride correction in male db/db mice at 10 mg/kg oral dose; type: functional
[5] = biological target: T2, Peroxisome proliferator-activated receptor delta; remark: listed apart in the source
Description: In vitro binding affinity against human Peroxisome proliferator activated receptor delta

[6] = Plasma clearance in fasted male Sprague dawely rats on administration of 0.5 mg/Kg i.v. of the compound; type: ADME, organism-based; conditions: Sprague-Dawley, rat, iv, read-out: Clp
[7] = Half life was measured in fasted male administration of compound 0.5 mg/Kg i.v.; type: ADME, organism-based; conditions: rat, in vivo, iv
Mus musculus [8] = test: In vivo efficacy as percent glucose correction in male db/db mice at 10 mg/kg oral dose; type: functional
Rattus norvegicus [9] = test: Dose-normalized AUC measured in fasted male Sprague dawely rats when the compound was administered at a peroral dose of 2 mg/Kg; type: ADME, organism-based; conditions: in vivo, po
[10] = Bioavailability in fasted male administration of 2 mg/Kg of compound p.o.; type: ADME, organism-based; conditions: rat, in vivo, po
Rattus norvegicus [11] = test: Dose-normalized AUC measured in fasted male Sprague dawely rats when the compound was administered at a peroral of 2 mg/Kg; type: ADME, organism-based; conditions: in vivo, po

SMILES	EC50 [3]	IC50 [5]	clearance [6]	half-life [7]	nAUC (Rattus norvegicus [9])	Triglyceride correction (Mus musculus [4])	Glucose correction (Mus musculus [8])	further results
CCCc1cc(Oc2ccccc2)ccc1OCCCOc1ccc(C2SC(=O)NC2=O)cc1 (configuration not stated)								IC50 [1]: > 50 µM
CCCc1cc(Oc2ccc(Cl)c(Cl)c2)ccc1OCCCOc1cccc(C2SC(=O)NC2=O)c1 (configuration not stated)	> 3 µM	> 50 µM	7.9 mL/min/kg	2.2 h	0.8 uMh	77%	79%	bioavailability [2]: 19%
CCCc1cc(Oc2ccc(CC(C)C)cc2)ccc1OCCCOc1cccc(C2SC(=O)NC2=O)c1 (configuration not stated)		> 50 µM						
CCCc1cc(Oc2ccc(Cl)c(C)c2)ccc1OCCCOc1cccc(C2SC(=O)NC2=O)c1 (configuration not stated)	> 3 µM	> 50 µM						
CCCc1cc(Oc2ccc(OC)cc2)ccc1OCCCOc1cccc(C2SC(=O)NC2=O)c1 (configuration not stated)	> 3 µM	> 10 µM						
CCCc1cc(Oc2ccc(C(C)C)cc2)ccc1OCCCOc1cccc(C2SC(=O)NC2=O)c1 (configuration not stated)	> 3 µM	> 50 µM	6.1 mL/min/kg	3.3 h				bioavailability [2]: 6%; nAUC (Rattus norvegicus [11]): 0.3 uMh
CCCc1cc(Oc2ccc(C(C)(C)C)cc2)ccc1OCCCOc1cccc(C2SC(=O)NC2=O)c1 (configuration not stated)		> 50 µM						
O=C1NC(=O)C(c2cccc(OCCCOc3ccc(Oc4ccccc4)cc3)c2)S1 (configuration not stated)		0.19 µM						
CCCc1cc(Oc2ccc(F)c(C)c2)ccc1OCCCOc1cccc(C2SC(=O)NC2=O)c1 (configuration not stated)	> 50 µM	> 50 µM	10.5 mL/min/kg	3.3 h	0.6 uMh	69%	78%	bioavailability [2]: 20%
CCCc1cc(Oc2ccc(C3CCCC3)cc2)ccc1OCCCOc1cccc(C2SC(=O)NC2=O)c1 (configuration not stated)	> 3 µM	> 50 µM						
CN(CCOc1ccc(CC2SC(=O)NC2=O)cc1)c1ccccn1 (configuration not stated) [ROSIGLITAZONE]					16.4 uMh	74%	67%	

Further lines, with some results ahead:

EC50 [3]	IC50 [5]	clearance [6]	half-life [7]	nAUC (Rattus norvegicus [9])	SMILES	Triglyceride correction (Mus musculus [4])	Glucose correction (Mus musculus [8])	further results
	3 µM				CCCc1cc(Oc2ccccc2)ccc1OCCCCOc1cccc(C2SC(=O)NC2=O)c1 (configuration not stated)			
> 3 µM	> 50 µM	9.7 mL/min/kg	2.9 h	1.5 uMh	CCCc1cc(Oc2ccc(Cl)cc2)ccc1OCCCOc1cccc(C2SC(=O)NC2=O)c1 (configuration not stated)	68%	86%	bioavailability [2]: 44%
		9.5 mL/min/kg	1.5 h	21.78 uMh	CCCc1cc(Oc2ccccc2)ccc1OCCCOc1cccc(C2SC(=O)NC2=O)c1 (configuration not stated)	67%	91%	bioavailability [10]: 62%
> 3 µM	3.8 µM				CCCc1cc(Oc2ccc(O)cc2)ccc1OCCCOc1cccc(C2SC(=O)NC2=O)c1 (configuration not stated)			
> 3 µM	> 5 µM	10.2 mL/min/kg	1.3 h	3.3 uMh	CCCc1cc(Oc2ccc(F)cc2)ccc1OCCCOc1cccc(C2SC(=O)NC2=O)c1 (configuration not stated)	76%	90%	bioavailability [2]: 66%
> 3 µM	> 50 µM				CCCc1cc(Oc2ccc(-c3ccccc3)cc2)ccc1OCCCOc1cccc(C2SC(=O)NC2=O)c1 (configuration not stated)			
